Test results taken from the NIST ThermoML archive (doi:10.1021/je5010214).

Conditions: Liquid, Vibrating tube method

CCCCO [butan-1-ol]
Conditions	mass density [kg/m3]
303.15 K, 21920 kPa	817.555
303.15 K, 24992 kPa	819.44
303.15 K, 31958 kPa	823.711
303.15 K, 32862 kPa	824.267
303.15 K, 33112 kPa	824.372
303.15 K, 34081 kPa	824.9
303.15 K, 34980 kPa	825.355
303.15 K, 37951 kPa	827.164
303.15 K, 39904 kPa	828.27
303.15 K, 42014 kPa	829.398
303.15 K, 44896 kPa	831.035
303.15 K, 47951 kPa	832.781
303.15 K, 50065 kPa	833.864
303.15 K, 52073 kPa	834.942
303.15 K, 55075 kPa	836.525
303.15 K, 57989 kPa	838.099
303.15 K, 59979 kPa	839.13
303.15 K, 62052 kPa	840.165
303.15 K, 64988 kPa	841.599
303.15 K, 66030 kPa	842.119
303.16 K, 100 kPa	802.125
303.16 K, 2964.9 kPa	804.3
303.16 K, 7045.6 kPa	807.335
303.16 K, 8858.2 kPa	808.638
303.16 K, 10014 kPa	809.449
303.16 K, 18021 kPa	814.973
303.16 K, 27933 kPa	821.256
303.16 K, 29990 kPa	822.537
308.15 K, 274.3 kPa	798.317
308.15 K, 494.1 kPa	798.504
308.15 K, 803.3 kPa	798.75
308.15 K, 1039.5 kPa	798.954
308.15 K, 1916.7 kPa	799.642
308.15 K, 2980.7 kPa	800.489
308.15 K, 4990.2 kPa	802.048
308.15 K, 6964.9 kPa	803.548
308.15 K, 8864.3 kPa	804.962
308.15 K, 9863.1 kPa	805.692
308.15 K, 12009 kPa	807.267
308.15 K, 17850 kPa	811.315
308.15 K, 19930 kPa	812.759
308.15 K, 21988 kPa	814.131
308.15 K, 25012 kPa	816.144
308.15 K, 27955 kPa	817.999
308.15 K, 29906 kPa	819.191
308.15 K, 31929 kPa	820.41
308.15 K, 32886 kPa	820.911
308.15 K, 32941 kPa	821.059
308.15 K, 34011 kPa	821.636
308.15 K, 37971 kPa	823.987
308.15 K, 40011 kPa	825.154
308.15 K, 41998 kPa	826.392
308.15 K, 45017 kPa	828.081
308.15 K, 48033 kPa	829.748
308.15 K, 50044 kPa	830.856
308.15 K, 51977 kPa	831.933
308.15 K, 54982 kPa	833.542
308.15 K, 58009 kPa	835.036
308.15 K, 60030 kPa	836.098
308.15 K, 61985 kPa	837.136
308.15 K, 64981 kPa	838.691
308.16 K, 85.2 kPa	798.155
308.16 K, 15069 kPa	809.4
308.16 K, 34949 kPa	822.224
308.16 K, 66088 kPa	839.237
313.15 K, 103.1 kPa	794.254
313.15 K, 316 kPa	794.433
313.15 K, 569.6 kPa	794.643
313.15 K, 1088.8 kPa	795.074
313.15 K, 2109.7 kPa	795.902
313.15 K, 3137 kPa	796.707
313.15 K, 5111.8 kPa	798.292
313.15 K, 6921.8 kPa	799.704
313.15 K, 9210.7 kPa	801.445
313.15 K, 10209 kPa	802.164
313.15 K, 12020 kPa	803.525
313.15 K, 15059 kPa	805.716
313.15 K, 17921 kPa	807.72
313.15 K, 19932 kPa	809.082
313.15 K, 22058 kPa	810.55
313.15 K, 24862 kPa	812.41
313.15 K, 27869 kPa	814.438
313.15 K, 29957 kPa	815.731
313.15 K, 32107 kPa	817.091
313.15 K, 32980 kPa	817.674
313.15 K, 33002 kPa	817.783
313.15 K, 33981 kPa	818.214
313.15 K, 35045 kPa	818.819
313.15 K, 38127 kPa	820.76
313.15 K, 41978 kPa	822.973
313.15 K, 44946 kPa	824.676
313.15 K, 47880 kPa	826.39
313.15 K, 52097 kPa	828.677
313.15 K, 54924 kPa	830.321
313.15 K, 58082 kPa	831.994
313.15 K, 59932 kPa	832.96
313.15 K, 62004 kPa	834.048
313.15 K, 64954 kPa	835.652
313.15 K, 66113 kPa	836.222
313.16 K, 860.7 kPa	794.888
313.16 K, 39997 kPa	821.817
313.16 K, 50021 kPa	827.556
318.15 K, 72.7 kPa	790.456
318.15 K, 150.1 kPa	790.516
318.15 K, 336.3 kPa	790.675
318.15 K, 1105.7 kPa	791.334
318.15 K, 1929.1 kPa	792.026
318.15 K, 2933.2 kPa	792.866
318.15 K, 8989 kPa	797.678
318.15 K, 10075 kPa	798.523
318.15 K, 11896 kPa	799.896
318.15 K, 18102 kPa	804.461
318.15 K, 19985 kPa	805.78
318.15 K, 22094 kPa	807.257
318.15 K, 29998 kPa	812.541
318.15 K, 33016 kPa	814.458
318.15 K, 37838 kPa	817.415
318.15 K, 40093 kPa	818.817
318.15 K, 44884 kPa	821.648
318.15 K, 47944 kPa	823.402
318.15 K, 54944 kPa	827.433
318.15 K, 57972 kPa	829.016
318.15 K, 59923 kPa	830.12
318.15 K, 65022 kPa	832.785
318.15 K, 66028 kPa	833.327
318.16 K, 590.9 kPa	790.894
318.16 K, 891 kPa	791.16
318.16 K, 5020.8 kPa	794.556
318.16 K, 6926.7 kPa	796.098
318.16 K, 14800 kPa	802.072
318.16 K, 24873 kPa	809.191
318.16 K, 27909 kPa	811.139
318.16 K, 31957 kPa	813.824
318.16 K, 34110 kPa	815.009
318.16 K, 35048 kPa	815.63
318.16 K, 41996 kPa	819.89
318.16 K, 49950 kPa	824.565
318.16 K, 52037 kPa	825.741
318.16 K, 61930 kPa	831.241
323.15 K, 95 kPa	786.145
323.15 K, 296.1 kPa	786.326
323.15 K, 528.4 kPa	786.535
323.15 K, 994.2 kPa	786.944
323.15 K, 2006.9 kPa	787.814
323.15 K, 2966.6 kPa	788.632
323.15 K, 4996.2 kPa	790.328
323.15 K, 7042.1 kPa	792.001
323.15 K, 9029.9 kPa	793.564
323.15 K, 10090 kPa	794.392
323.15 K, 11914 kPa	795.8
323.15 K, 15111 kPa	798.229
323.15 K, 17981 kPa	800.333
323.15 K, 20038 kPa	801.815
323.15 K, 21995 kPa	803.198
323.15 K, 24993 kPa	805.264
323.15 K, 32079 kPa	809.955
